Results from patent publication EP4680608B1, “2,6-DIHYDRO-7H-PYRAZOLO[3,4-C]PYRIDIN-7-ONE DERIVATIVES AS ANTI-MALARIAL AGENTS” (MMV Medicines for Malaria Venture, priority 2024, dated 2025).

Tests used:
[1] = biological target: T1, P. falciparum DHODH (Plasmodium falciparum, UniProt Q08210); assay: DHODH inhibition, steady-state DCIP assay (PfDHODH); type: biochemical; conditions: recombinant PfDHODH, DCIP method, 25°C, 5 nM enzyme
T1 construct: His6 (N); made in house; host or cells: E. coli BL21-DE3 (phage-resistant)
T1 sequence (Q08210 158-569): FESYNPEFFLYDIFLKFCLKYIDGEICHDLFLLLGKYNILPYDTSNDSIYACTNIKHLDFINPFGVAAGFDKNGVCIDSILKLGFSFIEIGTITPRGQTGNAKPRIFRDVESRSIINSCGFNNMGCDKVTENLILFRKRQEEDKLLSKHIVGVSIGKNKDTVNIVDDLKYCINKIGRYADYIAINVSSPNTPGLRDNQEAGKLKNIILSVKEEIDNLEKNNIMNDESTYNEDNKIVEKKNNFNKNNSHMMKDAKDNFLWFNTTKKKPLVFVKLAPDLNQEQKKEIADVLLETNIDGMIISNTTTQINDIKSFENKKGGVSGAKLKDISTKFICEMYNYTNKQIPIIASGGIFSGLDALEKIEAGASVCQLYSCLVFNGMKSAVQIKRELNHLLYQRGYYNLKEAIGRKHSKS
Description: (§1) Compound stocks were prepared at 10-100 mM in DMSO, and diluted working stocks in DMSO were generated as appropriate. Compounds were plated from DMSO stocks in 96 well plate format using a Tecan D300e digital dispenser to generate a 3-fold dilution series over a concentration range of 0.0003 -100 µM (or 30 µM), yielding a final DMSO concentration of 1% in the assay. The top concentration used in the dose response was determined by the initial DMSO stock concentrations:100 µM for 100 mM stocks, and 30 µM for 10 mM stocks. Triplicate rate data were collected at each inhibitor concentration. Inhibitory IC50 values were determined by fitting the data to log (inhibitor) vs response equation Y = bottom + (top - bottom)/(1 + 10A ((X - Log IC50))) in GraphPad Prism.

[2] = test system: P. falciparum 3D7; assay: Asexual blood-stage growth inhibition assay, SYBR green method; type: cell-based; conditions: ring-stage 3D7 parasites
Description: Asexual blood-stage EC50 assays. […] Compound stocks prepared in DMSO were plated using a Tecan D300e automated low volume liquid handler. Ring-stage 3D7 or Dd2 parasites (60 µL cells) (2% hematocrit, 0.5% parasitemia, final DMSO concentration 0.5%) were added to plates, incubated with compounds over a range of concentrations in technical triplicate for 72 h at 37 °C, 5% CO2, and then frozen (-80°C) overnight before analysis. […] Data were analyzed by non-linear regression using GraphPad Prism to determine the EC50 by fitting to the built-in equation (log(inhibitor) vs response-variable slope with four parameters).

[3] = biological target: P. vivax DHODH (Plasmodium vivax, UniProt A5K1N1); assay: DHODH inhibition, steady-state DCIP assay (PvDHODH); type: biochemical; conditions: recombinant PvDHODH, DCIP method, 25°C, 5 nM enzyme; read-out: P. vivax DHODH (IC50)
Sequence of P. vivax DHODH (A5K1N1 entry or part of it): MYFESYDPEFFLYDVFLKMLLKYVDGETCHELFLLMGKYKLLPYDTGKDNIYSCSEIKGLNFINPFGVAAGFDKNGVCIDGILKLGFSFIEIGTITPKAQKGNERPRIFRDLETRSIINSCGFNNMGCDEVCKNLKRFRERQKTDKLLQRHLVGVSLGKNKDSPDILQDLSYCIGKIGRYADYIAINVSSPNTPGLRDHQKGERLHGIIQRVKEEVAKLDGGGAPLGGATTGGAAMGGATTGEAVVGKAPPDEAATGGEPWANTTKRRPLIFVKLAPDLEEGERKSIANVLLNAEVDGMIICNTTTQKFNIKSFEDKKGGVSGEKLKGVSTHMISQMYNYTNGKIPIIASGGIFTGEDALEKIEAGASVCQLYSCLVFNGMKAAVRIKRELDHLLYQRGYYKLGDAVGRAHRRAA
Text: (§2) DOI: 10.1074/jbc.M206854200).
(§3) Proteins were expressed and purified on a Pharmacia FPLC using HisTrap HP column chromatography followed by gel filtration chromatography on a Pharmacia HiLoad 16/600 Superdex 200 column, and protein concentration determined based on OD280 using the previously described extinction coefficients (Kokkonda et al., 2020, J Med Chem, 63 (9), 4929-4956. DOI: 10.1021/acs.jmedchem.0c00311). Purified proteins were >95% pure based on SDS-PAGE analysis.
(§4) DHODH activity was monitored in a steady-state assay using the 2,6-dichloroindophenol (DCIP) method at 25°C in assay buffer (100 mM HEPES, pH 8.0, 150 mM NaCl, 1% glycerol, 0.1% Triton X-100 reduced) plus substrates 20 µM CoQD, 200 µM DHO, 120 µM DCIP, and 5 nM enzyme as previously described (Malmquist et al, 2008, Biochemistry, 47 (8), 2466-2475. DOI: 10.1021/bi702218c).
as §1, with “Prism. DSM265 ^2 was plated as an assay control in all studies.” for “Prism.”

[4] = biological target: T2, Human DHODH (Homo sapiens, UniProt Q02127); assay: DHODH inhibition, steady-state DCIP assay (human DHODH); type: biochemical; conditions: recombinant HsDHODH, DCIP method, 25°C, 5 nM enzyme; top concentration 100 µM or 30 µM
T2 construct: C-terminal His6-tagged HsDHODH residues 29-395 in pET-22b (start ^29MATGDE); His6 (C); made in house; host or cells: E. coli BL21-DE3 (phage-resistant)
T2 sequence (Q02127 29-395): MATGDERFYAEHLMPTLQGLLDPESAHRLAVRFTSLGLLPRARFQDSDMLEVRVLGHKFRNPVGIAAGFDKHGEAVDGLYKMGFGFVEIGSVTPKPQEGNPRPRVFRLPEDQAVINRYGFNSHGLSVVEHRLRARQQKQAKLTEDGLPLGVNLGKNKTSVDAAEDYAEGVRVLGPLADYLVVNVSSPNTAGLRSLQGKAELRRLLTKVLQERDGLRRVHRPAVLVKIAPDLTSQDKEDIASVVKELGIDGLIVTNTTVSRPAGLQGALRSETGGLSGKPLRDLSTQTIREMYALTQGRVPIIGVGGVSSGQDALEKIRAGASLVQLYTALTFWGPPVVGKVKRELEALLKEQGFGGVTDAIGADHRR
Text: as §2, §3, §4
as §1, with “Prism. DSM265 ^2 was plated as an assay control in all studies.” for “Prism.”

[5] = Plasmodium falciparum, 3D7, 72 h

Row | SMILES | IC50 [1] | EC50 [2, 5] | IC50 [3] | IC50 [4] | EC50 ([2]; 72 h)
1 | Cn1nc2c(=O)n(C3CC3)ncc2c1[C@](O)(c1ccc(C(F)(F)F)c(Cl)c1)C(F)(F)F (single isomer, unassigned) [5-15] | 8.6 nM | 0.29 nM | 9.3 nM | 24000 nM | 
2 | Cn1nc2c(=O)n(C3CC3)cnc2c1[C@](O)(c1ccc(C(F)(F)F)c(Cl)c1)C(F)(F)F (single isomer, unassigned) [5-17] | 4.6 nM | 0.046 nM | 6.1 nM | 5600 nM | 
3 | Cn1nc2c(=O)n(C3CC3)cnc2c1[C@](O)(c1ccc(C(F)(F)F)c(C#N)c1)C(F)(F)F (single isomer, unassigned) [5-19] | 12 nM |  | 20 nM | 17000 nM | 0.35 nM
4 | Cn1nc2c(=O)n(C3CC3)cnc2c1[C@](O)(c1ccc(C(F)(F)F)nc1)C(F)(F)F (single isomer, unassigned) [5-21] | 31 nM | 2.1 nM | 29 nM | > 30000 nM | 
5 | Cn1nc2c(=O)n(C3CC3)cnc2c1[C@](O)(c1cnc(C(F)(F)F)c(Cl)c1)C(F)F (single isomer, unassigned) [5-22] | 11 nM | 6.1 nM | 7.7 nM | 22000 nM | 
6 | CC(C)n1cnc2c([C@](O)(c3ccc(C(F)(F)F)c(Cl)c3)C(F)(F)F)n(C)nc2c1=O (single isomer, unassigned) [5-32] | 5 nM | 0.25 nM | 8.5 nM | 14000 nM | 
7 | Cn1nc2c(=O)n(C3CC3)cnc2c1[C@](N)(c1ccc(C(F)(F)F)c(C#N)c1)C(F)(F)F (single isomer, unassigned) [5-40] | 18 nM | 3.1 nM | 22 nM | > 30000 nM | 
8 | Cn1nc2c(=O)n(C3CC3)ccc2c1[C@](N)(c1ccc(C(F)(F)F)c(C#N)c1)C(F)(F)F (single isomer, unassigned) [5-45] | 8.2 nM | 0.85 nM | 8.5 nM | 30000 nM | 
9 | Cn1nc2c(=O)n(C3CC3)ccc2c1[C@](N)(c1ccc(C(F)(F)F)c(Cl)c1)C(F)(F)F (single isomer, unassigned) [5-49] | 3.9 nM | 0.64 nM | 4.2 nM | 9000 nM | 
10 | Cn1nc2c(=O)n(C3CC3)cnc2c1[C@](N)(c1ccc(C(F)(F)F)c(Cl)c1)C(F)(F)F (single isomer, unassigned) [5-51] | 4.3 nM | 0.71 nM | 4 nM | 30000 nM | 
11 | Cn1nc2c(=O)n(C3CC3)cnc2c1[C@](O)(c1cnc(C(F)(F)F)c(C#N)c1)C(F)(F)F (single isomer, unassigned) [5-52] | 62 nM | 11 nM | 46 nM | > 30000 nM | 
12 | Cn1nc2c(=O)n(C3CC3)cnc2c1[C@](O)(c1ccc(C(F)F)c(C#N)c1)C(F)(F)F (single isomer, unassigned) [5-54] | 44 nM | 3 nM | 3.5 nM | > 30000 nM | 
13 | CCC(O)(c1cnc(C(F)(F)F)c(Cl)c1)c1c2cc(C)n(C3CC3)c(=O)c2nn1C (centres unmarked) [1-7, 3-(1-(5-chloro-6-(trifluoromethyl)pyridin-3-yl)-1-hydroxypropyl)-6-cyclopropyl-2,5-dimethyl-2,6-dihydro-7H-pyrazolo[3,4-c]pyridin-7-one] | 60 nM | 6.5 nM | 26 nM | 14000 nM | 
14 | Cn1nc2c(=O)n(CC(F)(F)F)cnc2c1[C@](O)(c1ccc(C(F)(F)F)c(Cl)c1)C(F)(F)F [5-26, (R)-3-(1-(3-chloro-4-(trifluoromethyl)phenyl)-2,2,2-trifluoro-1-hydroxyethyl)-2-methyl-6-(2,2,2-trifluoroethyl)-2,6-dihydro-7H-pyrazolo[4,3-d]pyrimidin-7-one] | 17 nM | 0.39 nM | 25 nM | > 30000 nM | 
